The values that follow come from patent publication US20210355221A1, “Targeting the Non-Canonical NFkB Pathway in Cancer Immunotherapy” (The General Hospital Corporation, priority 2018, published 2021).

One test deals with MC38 tumors. The test can be described thus: MC38 tumor model: tumor growth, survival, re-challenge. It counts as in vivo, mice. The procedure:
MC38 tumor cell lines were obtained from Dr. Mark Smyth (QIMR Berghofer). MC38 cells were implanted at 2×10^6 cells in the flank. B16F10 cell lines were obtained from ATCC. B16F10 cells were implanted intradermally at 0.5×10^6 cells in the flank. All tumor models were allowed to grow for one week prior to therapy. Tumor sizes were approximately 75 mm^3 before treatment initiation, and starting tumor volumes were normalized between treatment groups. Percent tumor changes were calculated as percent difference of mouse tumor volume from pre-treatment baseline, measured using digital caliper. Lung seeding B16F10 models received 0.5×10^6 cells intravenously and were allowed to grow for 10 days from the point of implantation. Mouse tumors were allowed to grow to a maximum of 2 cm in diameter, or until tumor ulceration occurred. These were considered as endpoints for survival experiments in accordance with MGH IACUC regulations.
(§1) Tumor bearing mice, with a tumor size of approximately 75 mm^3, were treated with 200 μg of aPD-1 and/or 100 μg of aCD40 intraperitoneally for immunotherapy studies. For combination treatment studies, both aPD-1 and aCD40 were administered at the same time. For IL-12 neutralization studies, mice were dosed with 500 μg of anti-IL-12p40 Clone 17.8 daily for 5-7 days following aPD-1 therapy. Neutralization of IFN-γ in vivo was performed by administering 1 mg of anti-IFN-γ Clone XMG1.2 initially with 500 μg of anti-IFN-γ dosed daily intraperitoneally for days 1-3. The cIAP1/2 inhibitor AZD5582 (Hennessy et al., 2013) was purchased from Selleck Chem and was resuspended in sterile saline. Mice received a single dose of AZD5582 at 10 mg/kg, intraperitoneally. […]
Long-term surviving mice from aPD-1 and aCD40 combination therapy were re-challenged with either MC38 or B16F10 tumors at 50 days following primary tumor rejection. […] Naive C57BL/6J mice were implanted alongside re-challenge mice, and these mice were monitored for tumor growth for 2 weeks following implantation. […]

Test [1] has as its system Flt3L-derived bone marrow DCs. The test can be described thus: Flt3L-derived bone marrow DCs cultured in vitro with AZD5582, IL-12p40 transcripts. The class given is cell-based. The conditions noted are these: 24 hours, various concentrations of AZD5582. The procedure:
FIGS. 13A-C. IL-12 Expressing Cells Express More CD40 and […] can Induce IL-12 Production In vitro. (A) Flow cytometry of MC38 tumors from IL-12p40-eYFP reporter mice, stained for CD40 expression; n=7 per group. (B) Flow cytometry of CD40 expression from the following tumor immune cell populations: Non-Antigen Presenting Cells (non-APCs, defined as F4/80−CD11c−MHCII−), macrophages (F4/80+) and IL-12+ DCs (CD11chi MHCIIhi IL-12+); n=4 per group. (C) Flt3L-derived bone marrow DCs were cultured in vitro with various concentrations of AZD5582 for 24 hours, and were harvested for RNA. Shown is fold change expression of IL-12p40 transcripts compared to untreated conditions (n=3 per condition). Results are representative of at least 2 independent experiments. ****p<0.0001; Student's two tailed t-test.

In a further test the test system is IL-12p40-eYFP^+ cells. Kind of test: Intravital imaging of MC38 tumors in IL-12p40-eYFP reporter mice. It counts as in vivo. Conditions: after 48 hours compared to baseline. The protocol: as §1, with “saline.” for “saline. Mice received a single dose of AZD5582 at 10 mg/kg, intraperitoneally.”
Interferon gamma reporter (IFN-γ-eYFP) or IL-12p40 reporter (IL12p40-eYFP) mice were anesthetized and dorsal skin-fold window chambers were installed as previously described (Thurber et al., 2013) and mice were treated with analgesic (Buprenorphine 0.1 mg/kg/day) for 3 days following chamber implantation. […] Anesthetized mice were kept on a heating pad kept at 37° C., vital signs monitored and mice were imaged using an Olympus FluoView FV1000MPE confocal imaging system (Olympus America). […] Sequential scanning (5 μm slices) with 405, 473, 559, and 635 nm lasers was performed using voltage and power settings that were optimized using fluorescence minus-one control mice prior to time lapse acquisition. […]

Molecules are shown by their SMILES.

Turning to `CCCCCCCCc1ccc(CCC(N)(CO)CO)cc1` [FTY720], in the test on MC38 tumors (MC38, FTY720 1.25 mg/kg i.p. daily with aPD-1), the “effect of FTY720 on the antitumor response to aPD-1” value was “did not affect the antitumor response to aPD-1 treatment”.

Consider `CN[C@@H](C)C(=O)N[C@H](C(=O)N1CCC[C@H]1C(=O)N[C@H]1c2ccccc2C[C@H]1OCC#CC#CCO[C@@H]1Cc2ccccc2[C@@H]1NC(=O)[C@@H]1CCCN1C(=O)[C@@H](NC(=O)[C@H](C)NC)C1CCCCC1)C1CCCCC1` [AZD5582], for which the “IL-12 production in vitro” value in test [1] was “potently enhanced IL-12 production in vitro”. For the same compound, the “antitumor response, MC38 tumors” value with MC38 tumors (MC38 tumor-bearing mice, treatment as labelled) is “provided antitumor effects in vivo”. The “fold increase of tumor-infiltrating IL-12^+ cells” value with IL-12p40-eYFP^+ cells came to 4.0±1.3 fold.
